According to patent US11091531B2, “Antigen-specific helper T-cell receptor genes” (International Institute of Cancer Immunology, Inc., priority 2012, dated 2021):
Peptide text beside a SMILES is read from it.

Tested on: HLA-DPB1*05:01-positive TF-1 cells
Test: 51Cr releasing assay with target cells pretreated with granzyme-inhibitor
Type: cell-based, human
Settings: target cells pretreated with 100 μM for 2 hours; p<0.05; FIG. 4F
Description: To confirm whether the cytotoxic activity of the WT1332-TCR-transduced CD4^+ T-cells was dependent on the granzyme B/perforin pathway, HLA-DPB1*05:01-positive TF-1 cells pretreated with 100 μM of a granzyme-inhibitor, Ac-IETD-Cho, were used as target cells. The HLA-DPB1*05:01-positive TF-1 cells were pretreated with 100 μM of Ac-IETD-Cho or DMSO (control) for 2 hours, then labeled with ^51Cr, and incubated with WT1332-TCR-transduced CD4^+ T-cells, and ^51Cr releasing assay was performed.

`CC[C@H](C)[C@H](NC(C)=O)C(=O)N[C@@H](CCC(=O)O)C(=O)N[C@H](C(=O)N[C@H](C=O)CC(=O)O)[C@@H](C)O` [Ac-IETD-Cho] (Ac-IETD-aldehyde) was tested, and the “cytotoxic activity of WT1332-TCR-transduced CD4+ T-cells on pretreated target cells compared with DMSO” value was “markedly lower”.
